Results taken from ChEMBL document CHEMBL1132933, “Protease inhibitors: synthesis and QSAR study of novel classes of nonbasic thrombin inhibitors incorporating sulfonylguanidine and O-methylsulfonylisourea moieties at P1” (J Med Chem, 2000).

What follows are compounds tested against Trypsin (Homo sapiens, UniProt P07477+P07478+P35030) (assay: Inhibitory activity against human trypsin (using Chromozym TH as the substrate)).
Type: protein assay

SMILES | Ki [nM]
N=C(N)NS(=O)(=O)Cc1ccccc1 | 1350
N=C(N)NS(=O)(=O)C(F)(F)F | 1275
N=C(N)NNS(=O)(=O)c1ccc([N+](=O)[O-])c(Cl)c1 | 1010
Cc1ccc(S(=O)(=O)NC(=O)N[C@H](Cc2ccccc2)C(=O)Nc2ccc(S(=O)(=O)NN=C(N)N)cc2)cc1 | 1340
N=C(N)NNS(=O)(=O)c1ccc(Cl)cc1 | 1100
COC(=N)NS(=O)(=O)c1c(F)c(F)c(F)c(F)c1F | 1425
CN(C)c1ccc(/N=N/c2ccc(S(=O)(=O)N=C(N)N)cc2)cc1 | 1245
COC(=N)NS(=O)(=O)C(F)(F)C(F)(F)C(F)(F)C(F)(F)F | 2180
COC(=N)NS(=O)(=O)c1ccc(Br)cc1 | 1370
CN(C)c1cccc2c(S(=O)(=O)N=C(N)N)cccc12 | 1150
N=C(N)NNS(=O)(=O)c1ccc(I)cc1 | 1300
N=C(N)NS(=O)(=O)c1cccc(C(=O)O)c1 | 1500
COC(=N)NS(=O)(=O)c1ccc(NC(=O)C2CCCN2C(=O)NS(=O)(=O)c2ccc(C)cc2)cc1 (stereo not drawn) | 1500
COC(=N)NS(=O)(=O)c1ccc(NC(=O)[C@H](Cc2c[nH]cn2)NC(=O)CNC(=O)NS(=O)(=O)c2ccc(C)cc2)cc1 | 1550
N=C(N)NNS(=O)(=O)c1cccc(C(=O)O)c1 | 1520
N=C(N)NS(=O)(=O)c1ccc(N)cc1 [SULFAGUANIDINE] | 1350

The next lines start with the values.

Ki [nM] | SMILES
1415 | COC(=N)NS(=O)(=O)c1ccc(I)cc1
1275 | COc1ccc(S(=O)(=O)NN=C(N)N)cc1
1100 | Cc1cc(C)c(S(=O)(=O)NN=C(N)N)c(C)c1
1375 | COC(=N)NS(=O)(=O)c1cccc([N+](=O)[O-])c1
1445 | COC(=N)NS(=O)(=O)c1ccc2ccccc2c1
1340 | COC(=N)NS(=O)(=O)c1ccc(C(=O)O)cc1
1200 | N=C(N)NNS(=O)(=O)c1cccc2ccccc12
1235 | N=C(N)NS(=O)(=O)c1ccc(C(=O)O)cc1
1080 | COc1ccc(S(=O)(=O)N=C(N)N)cc1N
1100 | N=C(N)NNS(=O)(=O)c1cc(Cl)cc(Cl)c1O
1530 | Cc1ccc(S(=O)(=O)NC(=O)N2CCCC2C(=O)Nc2ccc(S(=O)(=O)NN=C(N)N)cc2)cc1 (stereo not drawn)
1400 | Cc1ccc(S(=O)(=O)NC(=O)N2CCC[C@H]2C(=O)NCC(=O)Nc2ccc(S(=O)(=O)N=C(N)N)cc2)cc1
1435 | COC(=N)NS(=O)(=O)c1ccc(NC(=O)C2CCCN2C(=O)[C@H](Cc2ccccc2)NC(=O)OCc2ccccc2)cc1 (stereo partly drawn)

The compounds below were run against Prothrombin (Homo sapiens, UniProt P00734) (assay: Inhibitory activity against human thrombin (using Chromozym TH as the substrate)).

SMILES | Ki [nM]
N=C(N)NS(=O)(=O)Cc1ccccc1 | 330
N=C(N)NS(=O)(=O)C(F)(F)F | 890
N=C(N)NNS(=O)(=O)c1ccc([N+](=O)[O-])c(Cl)c1 | 154
Cc1ccc(S(=O)(=O)NC(=O)N[C@H](Cc2ccccc2)C(=O)Nc2ccc(S(=O)(=O)NN=C(N)N)cc2)cc1 | 44
N=C(N)NNS(=O)(=O)c1ccc(Cl)cc1 | 212
COC(=N)NS(=O)(=O)c1c(F)c(F)c(F)c(F)c1F | 153
CN(C)c1ccc(/N=N/c2ccc(S(=O)(=O)N=C(N)N)cc2)cc1 | 134
COC(=N)NS(=O)(=O)C(F)(F)C(F)(F)C(F)(F)C(F)(F)F | 565
COC(=N)NS(=O)(=O)c1ccc(Br)cc1 | 265
CN(C)c1cccc2c(S(=O)(=O)N=C(N)N)cccc12 | 120
N=C(N)NNS(=O)(=O)c1ccc(I)cc1 | 177
N=C(N)NS(=O)(=O)c1cccc(C(=O)O)c1 | 121
COC(=N)NS(=O)(=O)c1ccc(NC(=O)C2CCCN2C(=O)NS(=O)(=O)c2ccc(C)cc2)cc1 (stereo not drawn) | 63
COC(=N)NS(=O)(=O)c1ccc(NC(=O)[C@H](Cc2c[nH]cn2)NC(=O)CNC(=O)NS(=O)(=O)c2ccc(C)cc2)cc1 | 21
N=C(N)NNS(=O)(=O)c1cccc(C(=O)O)c1 | 112
N=C(N)NS(=O)(=O)c1ccc(N)cc1 [SULFAGUANIDINE] | 95

The remaining compounds from weak to strong by Ki, led by results:

Ki [nM] | SMILES
243 | COC(=N)NS(=O)(=O)c1ccc(I)cc1
227 | COc1ccc(S(=O)(=O)NN=C(N)N)cc1
219 | Cc1cc(C)c(S(=O)(=O)NN=C(N)N)c(C)c1
213 | COC(=N)NS(=O)(=O)c1cccc([N+](=O)[O-])c1
147 | COC(=N)NS(=O)(=O)c1ccc2ccccc2c1
133 | COC(=N)NS(=O)(=O)c1ccc(C(=O)O)cc1
125 | N=C(N)NNS(=O)(=O)c1cccc2ccccc12
104 | N=C(N)NS(=O)(=O)c1ccc(C(=O)O)cc1
103 | COc1ccc(S(=O)(=O)N=C(N)N)cc1N
98 | N=C(N)NNS(=O)(=O)c1cc(Cl)cc(Cl)c1O
43 | Cc1ccc(S(=O)(=O)NC(=O)N2CCCC2C(=O)Nc2ccc(S(=O)(=O)NN=C(N)N)cc2)cc1 (stereo not drawn)
21 | Cc1ccc(S(=O)(=O)NC(=O)N2CCC[C@H]2C(=O)NCC(=O)Nc2ccc(S(=O)(=O)N=C(N)N)cc2)cc1
16 | COC(=N)NS(=O)(=O)c1ccc(NC(=O)C2CCCN2C(=O)[C@H](Cc2ccccc2)NC(=O)OCc2ccccc2)cc1 (stereo partly drawn)
